Results from PubChem BioAssay (NCI).
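Following 48 hours of exposure in 96-well plates, responses at five concentrations were used to interpolate endpoints linearly. GI50: concentration for 50% inhibition of growth. TGI denotes the concentration required for complete inhibition of growth.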

How the values were obtained:
Test in all cases: growth of human tumour cells (NCI), 48 h
EKVX NSCLC = system: EKVX NSCLC
IGROV1 ovarian = system: IGROV1 ovarian
NCI-H460 lung = system: NCI-H460 lung
NCI-H522 lung = system: NCI-H522 lung
OVCAR-3 ovarian = system: OVCAR-3 ovarian
RXF 393 renal = system: RXF 393 renal
SF-268 CNS = system: SF-268 CNS
SW-620 colon = system: SW-620 colon
T-47D breast = system: T-47D breast
UACC-257 melanoma = system: UACC-257 melanoma

Row | SMILES | TGI (EKVX NSCLC) [µM] | TGI (IGROV1 ovarian) [µM] | TGI (NCI-H460 lung) [µM] | TGI (NCI-H522 lung) [µM] | TGI (OVCAR-3 ovarian) [µM] | TGI (RXF 393 renal) [µM] | TGI (SF-268 CNS) [µM] | TGI (SW-620 colon) [µM] | TGI (T-47D breast) [µM] | TGI (UACC-257 melanoma) [µM] | GI50 (EKVX NSCLC) [nM] | GI50 (IGROV1 ovarian) [nM] | GI50 (NCI-H460 lung) [µM] | GI50 (NCI-H522 lung) [µM] | GI50 (OVCAR-3 ovarian) [nM] | GI50 (RXF 393 renal) [µM] | GI50 (SF-268 CNS) [µM] | GI50 (SW-620 colon) [µM] | GI50 (T-47D breast) [µM] | GI50 (UACC-257 melanoma) [µM]
1 | CC12CCC(C1)C(C)(C)C2OC(=O)c1ccccc1N (stereo not given) | 30.2 | 40.5 | 30.7 | 22.7 | 30.8 | 25.7 | 31.6 | 29.6 | 32.1 | 29 | – | – | – | – | – | – | – | – | – | –
2 | CN1CCN(Cc2ccc(NC(=O)c3cncc(C#Cc4ccc(N)nc4)c3)cc2C(F)(F)F)CC1 | 6.08 | 3.22 | 5.86 | 6.2 | 7.88 | 2.14 | 5.3 | 3.37 | 7.14 | 5.27 | 1160 | 476 | 0.988 | 0.774 | 1720 | 0.524 | 1.09 | 0.893 | 1.35 | 1.42
3 | CCOC(=O)N1CCC(N=C2CSc3nnc(-c4cc(C(F)(F)F)cc(C(F)(F)F)c4)n3N2)CC1 | 5.43 | 4.79 | 4.1 | 4.61 | 3.59 | 3.08 | 4.86 | 4.27 | 6.82 | 3.81 | 1770 | 1900 | 2.11 | 2.27 | 2010 | 1.57 | 2.23 | 2.09 | 2.6 | 1.76
4 | COc1cc2[nH]c3c(c2cc1OC)CCN[C@@]31CC[C@@]2(CC3c4c(cc(OC)c(O)c42)CCN3C)C[C@@H]1OC (stereo not given in full) | > 46.4 | > 100 | > 100 | 66.7 | > 94.8 | 77.9 | > 100 | > 92.2 | 51.8 | 32.9 | – | – | – | – | – | – | – | – | – | –
5 | CN(C(=O)C(C)(C)C)c1ccccc1I(=O)=O | > 100 | > 100 | > 100 | 30 | > 100 | > 100 | > 100 | > 100 | > 100 | > 100 | > 100000 | > 100000 | > 100 | 16.1 | > 100000 | > 100 | > 100 | > 100 | 38.3 | > 100
6 | COC(=O)CC[C@@H](C)[C@H]1CC[C@H]2[C@@H]3CC[C@@H]4C[C@H](O)CC[C@]4(C)[C@H]3CC[C@]12C | 35.6 | 35.4 | 39.9 | 46.8 | 35 | 33 | 43.2 | > 100 | 36 | 29.5 | – | – | – | – | – | – | – | – | – | –
7 | Cc1cc(I)cc(CN(C)CCCN2CCC(C)CC2)c1O | 31 | 29.1 | 25 | 32.2 | 28.1 | 23.5 | 27.7 | 26.6 | 40.7 | 25.3 | 14200 | 13600 | 12.5 | 16.4 | 13700 | 10.5 | 14.6 | 13.6 | 15.8 | 11.8
8 | Nc1ccc(C#Cc2ccccc2C#CCCCCO)cc1 | 37.8 | 30.2 | 45.4 | 29.5 | 47.2 | 20.5 | 40.4 | 33.1 | 30.7 | 33.8 | 18900 | 16100 | 21.8 | 15.7 | 23000 | 4.69 | 19.9 | 17.6 | 15.4 | 18.9
9 | Cc1ccc(NC(=O)COc2ccc(Cl)cc2)cc1Cl | > 100 | > 100 | > 100 | > 100 | > 100 | > 100 | > 100 | > 100 | > 100 | > 100 | – | – | – | – | – | – | – | – | – | –
10 | C[C@]12CCC(=O)C=C1C[C@@H](O)[C@@H]1[C@@H]2CC[C@@]2(C)[C@H]1CC[C@]2(C)O | > 100 | > 100 | > 100 | > 100 | > 100 | > 100 | > 100 | > 100 | > 100 | > 100 | – | – | – | – | – | – | – | – | – | –
11 | Oc1c(C(c2ccc(F)cc2)N2CCCCC2)ccc2cncnc12 (stereo not given) | 45.9 | 21.7 | 14.1 | 10.2 | > 100 | 12.2 | > 100 | > 100 | 97 | 12.2 | 672 | 532 | 0.351 | 0.353 | 783 | 0.416 | 0.484 | 0.478 | 0.612 | 0.711
12 | Cc1cc(N(CCC#N)S(=O)(=O)c2ccccc2)ccc1C=Nc1ccc(C(=O)O)cc1 | 35.8 | 46.5 | 29.9 | 9.13 | 21.5 | 6.72 | > 60.7 | 15 | > 100 | 30 | – | – | – | – | – | – | – | – | – | –
13 | N#C/C(=C\c1ccc[nH]1)c1cc(-c2ccc(Cl)cc2)nn1-c1ccccc1 | > 100 | > 95.4 | 13.3 | 29.4 | 8.69 | 24.2 | 18.3 | > 41.8 | 13.1 | 35.8 | 2890 | 14000 | 3.43 | 5.19 | 2370 | 6.89 | 4.05 | 3.75 | 1.56 | 10.9
14 | COc1ccc(C(=O)/C=C/c2ccc(OCc3cccc(C(F)(F)F)c3)c(OC)c2)cc1OC | > 1000 | > 1000 | > 1000 | > 1000 | > 1000 | 562 | > 1000 | > 1000 | > 1000 | > 1000 | 45800 | 60200 | 51.7 | 39.2 | 48400 | 68.3 | 76.6 | 49.7 | 32.1 | 613
15 | C=C1C(=O)O[C@@H]2/C=C(/C)[C@@H](OC(C)=O)C[C@@H](O)/C(C)=C\[C@@H](OC(=O)[C@]3(C)O[C@@H]3C)[C@@H]12 | 24.4 | 32.9 | 72.9 | 2.81 | 23.8 | 29.3 | 41.8 | 18.5 | 24.1 | 33.2 | – | – | – | – | – | – | – | – | – | –
16 | O=C(Nc1nc2c(C(F)(F)F)cccc2s1)c1cc(Cl)ccc1O | 5.75 | 35 | 10.8 | 14 | 74.7 | 0.772 | > 100 | 16.3 | 0.783 | 0.821 | 250 | 511 | 0.32 | 0.285 | 375 | 0.257 | 0.422 | 0.364 | 0.245 | 0.273
17 | NS(=O)(=O)c1ccc(-n2nc3c(c2-c2cccs2)Cc2ccccc2-3)cc1 | 29.4 | 15.5 | > 100 | 29.8 | 44.4 | 40.7 | > 100 | 23.4 | 41.1 | 44.2 | 11900 | 2490 | > 100 | 12.4 | 14400 | 17.4 | > 100 | 10.2 | 12.8 | 23.2
18 | COC(=O)C1=C(C)NC(=S)NC1c1ccc(N(CCCl)CCCl)cc1Cl (stereo not given) | > 37.8 | > 89.1 | > 100 | 81.9 | > 94 | > 81.2 | 98.4 | > 100 | > 55.4 | 44.5 | – | – | – | – | – | – | – | – | – | –
19 | OC(c1cc(C(F)(F)F)nc2c(Cl)cc(Cl)cc12)C1CCCCN1 (stereo not given) | > 100 | 18.2 | > 26.7 | > 21 | 12.8 | 18.8 | > 40.7 | 19.2 | 19 | > 38.8 | – | – | – | – | – | – | – | – | – | –
20 | CC(C)(C)NCC(O)c1ccccc1Cl (stereo not given) | > 100 | > 100 | > 100 | > 100 | > 100 | > 100 | > 100 | > 100 | > 100 | > 100 | > 100000 | > 100000 | > 100 | > 100 | > 100000 | > 100 | > 100 | > 100 | > 100 | > 100
21 | CCCCCCCCN(CCCCCCCC)CC(O)c1cc(-c2ccccc2)nc2ccc(OC)cc12 (stereo not given) | > 100 | > 100 | > 100 | > 100 | 61.2 | > 100 | > 100 | > 100 | > 100 | > 100 | > 100000 | > 100000 | > 100 | 53.4 | 21200 | 43.7 | 28.7 | 16.5 | 25.6 | > 100
22 | CC1(C)OCC2OC(n3cnc4c(N)nc(Cl)nc43)C(OS(C)(=O)=O)C2O1 (stereo not given) | > 100 | > 100 | > 100 | > 100 | > 100 | > 100 | > 100 | > 100 | > 100 | > 100 | – | – | – | – | – | – | – | – | – | –
23 | CC(=O)C1=C(C)N(Cc2ccccc2)C2(O)C=CC(=O)C3=C(O)c4ccccc4C(=O)C312 (stereo not given) | 33.8 | > 100 | 41.3 | > 100 | 3.14 | 17.5 | 29.1 | 5.22 | 7.97 | 30.5 | 16400 | 6200 | 7.24 | 7.3 | 1420 | 3.27 | 10.4 | 2.24 | 2.71 | 5.77
24 | O=[N+]([O-])c1ccc2c(c1)C(N1CCN(CCO)CC1)Cc1ccc(F)cc1S2 (stereo not given) | 24.1 | 15.7 | 27.3 | 18.3 | 54.6 | 4.73 | 31.4 | 19.3 | 37.6 | 7.01 | – | – | – | – | – | – | – | – | – | –
25 | Clc1cnc(Nc2ccc(OCCN3CCCC3)cc2)nc1NCc1ccco1 | 6.47 | 12.8 | 5.36 | 3.96 | 9.75 | 3.24 | 6.47 | 13 | 10.6 | 6.32 | 2100 | 2500 | 2.04 | 1.75 | 3010 | 1.25 | 2.33 | 2.26 | 3.14 | 2.44
26 | Cn1nc(C(F)(F)F)cc1-c1cc(Cl)c(OCc2ccc(Cl)cc2)c(-c2ccc(Cl)c(C(F)(F)F)c2)c1O | 5.41 | 6.42 | 2.21 | 5.09 | 6.12 | 3.11 | 5.47 | 5.38 | 2.96 | 3.14 | 1210 | 1560 | 0.852 | 0.731 | 1130 | 1.01 | 1.24 | 1.38 | 0.435 | 0.964
